pIC50: −log10 of the molar value. Where a SMILES comes first, the peptide text is derived from it.

A short description of this assay: Cytotoxicity against mouse L1210/0 cells after 48 hrs. The assay is classed as cell-based.

As a reminder, the pIC50 is the IC50 on a negative log10 scale, so that one unit is a factor of ten. A lower pIC50 goes with a high IC50. For the molecule `CC1(C)C(CO)CC1Cn1cnc2c(N)nc(N)nc21` (stereo unspecified), for the setting “Mus musculus, L1210/0, 48 h”, the pIC50 was below 3.70.
Same read-out and setting: for `C#Cc1cn([C@H]2C[C@H](O)[C@@H](CO)O2)c(=O)[nH]c1=O` the value was 6.44.
Still for that read-out and setting: for `O=c1[nH]c(=O)n([C@H]2C[C@H](O)[C@@H](CO)O2)cc1C#CCCCO` the value was below 3.70; for `O=c1[nH]cnc2c1ncn2CC1CCC(CO)C1` (stereo unspecified), below 3.70.
Same read-out and setting: for `O=c1[nH]c(=O)n([C@H]2C[C@H](O)[C@@H](CO)O2)cc1C#CCCO` the value was below 3.70.
Turning to `CC1(C)C(CO)CC1Cn1nnc2c(Cl)nc(N)nc21` (stereo unspecified), the pIC50 (Mus musculus, L1210/0, 48 h) was below 3.70.
Same read-out and setting: for `COc1ccccc1-c1ncnc2c1ncn2C[C@@H]1C[C@H](O)c2ccccc21` the value was below 3.70.
On the same count and under the same terms, for `CC(O)Cn1cnc2c(S)nc(F)nc21` (stereo unspecified) the value was below 3.70.
Turning to `CCCC/C=C\c1cn([C@H]2C[C@H](O)[C@@H](CO)O2)c(=O)[nH]c1=O`, the pIC50 (Mus musculus, L1210/0, 48 h) was below 3.70.
On the same count and under the same terms, the figure for `Nc1ncnc2c1nnn2C1C[C@H](CO)[C@@H](CO)[C@@H]1CO` (stereo partly specified) is below 3.70; for `CC(=O)OCCOCn1cnc2c(Cl)nc(I)nc21` it is 5.07; for `CCC#Cc1cn([C@H]2C[C@H](O)[C@@H](CO)O2)c(=O)[nH]c1=O` it is below 3.70.
`OC[C@@H]1C[C@H](Cn2cnc3c(NC4CC4)ncnc32)c2c(-c3ccccc3)nnc(-c3ccccc3)c21` had a pIC50 (Mus musculus, L1210/0, 48 h) below 3.70.
Same read-out and setting: for `O=C1O/C(=C\Cn2cc(F)c(=O)[nH]c2=O)C(OCc2ccccc2)=C1OCc1ccccc1` the value was 5.29; for `CC1(C)[C@@H](Cn2ccc(=O)[nH]c2=O)CC[C@@]1(C)CO`, below 3.70.
The same measure, in the same setting: the figure for `Nc1nc(I)nc2c1ncn2COCCO` is below 3.70; for `CC(=O)OC(C)Cn1cnc2c(Cl)nc(F)nc21` (stereo unspecified) it is 4.43; for `C[C@@]1(CO)O[C@H](c2cc(F)c(N)cc2F)C[C@@H]1O` it is below 3.70.
For `C=C(Br)[C@H]1O[C@@H](n2cnc3c(N)ncnc32)[C@@H](O)[C@H]1O`, where the note is “Mus musculus, L1210/0, 48 h”, the pIC50 is 4.60.
Same read-out and setting: for `CC(=O)OCCOCn1cnc2c(=S)[nH]c(N)nc21` the value was 5.49.
Same read-out and setting: for `CC(O)Cn1cnc2c(N)nc(I)nc21` (stereo unspecified) the value was below 3.70; for `O=c1[nH]c(=O)n([C@H]2C[C@H](O)[C@@H](CO)O2)cc1I` [IDOXURIDINE], 3.76.
Still for that read-out and setting: the figure for `CC1(C)[C@@H](CO)CC[C@@]1(C)Cn1cc(I)c(=O)[nH]c1=O` is below 3.70; for `CC1(C)[C@@H](CO)CC[C@@]1(C)Cn1cnc2c(N)ncnc21` it is below 3.70; for `CC1(C)[C@@H](CO)CC[C@@]1(C)Cn1nnc2c(=O)[nH]cnc21` it is below 3.70.
For the setting “Mus musculus, L1210/0, 48 h”, `C[C@H](O)C1CC(CCn2cnc3c(N)ncnc32)C1(C)C` (stereo partly specified) had a pIC50 below 3.70.
`CC1(C)C(CO)CC1Cn1cnc2c(Cl)nc(N)nc21` (stereo unspecified): the pIC50 (Mus musculus, L1210/0, 48 h) is below 3.70.
In the case of `O=c1ccn([C@@H]2C[C@H](CO)C[C@@H]2CO)c(=O)[nH]1`, the pIC50 (Mus musculus, L1210/0, 48 h) was below 3.70.
On the same count and under the same terms, for `CN(C)c1nc2c(=O)[nH]c(N)nc2n1COCCO` the value was below 3.70; for `Nc1ccn([C@@H]2O[C@H](CO)[C@@H](O)[C@@H]2O)c(=O)n1` [CYTARABINE], 6.15.
Still for that read-out and setting: the figure for `C=CC#Cc1cn([C@H]2C[C@H](O)[C@@H](CO)O2)c(=O)[nH]c1=O` is below 3.70.
For the setting “Mus musculus, L1210/0, 48 h”, `CC1(C)[C@@H](Cn2cnc3c(Cl)nc(N)nc32)CC[C@@]1(C)CO` gave a pIC50 of 4.30.
Still for that read-out and setting: the figure for `O=C(/C=C/c1cc(=O)[nH]c(=O)n1COCCO)c1ccccc1` is 4.36.
Consider `Nc1ncnc2c1ncn2C1OC(C(O)O)[C@H](O)[C@H]1O` (single isomer, unassigned), for which the pIC50 (Mus musculus, L1210/0, 48 h) was below 3.70.
Still for that read-out and setting: the figure for `CO[C@@H]1OC[C@@H](OC(C)=O)[C@@H](OC(C)=O)[C@]1(F)n1ccc(=O)[nH]c1=O` is 4.26; for `Nc1nc2c(ncn2CCOCP(=O)(O)O)c(=O)[nH]1` [GS-438] it is 6.24.
Still for that read-out and setting: for `Nc1nc2c(nc(Cl)n2COCCO)c(=O)[nH]1` the value was below 3.70; for `C=C(Cl)c1cn([C@H]2C[C@H](O)[C@@H](CO)O2)c(=O)[nH]c1=O`, 5.78; for `COc1ccc(C(=O)/C=C/c2cc(O)nc(O)n2)cc1`, below 3.70.
Still for that read-out and setting: the figure for `COc1ccccc1C(=O)/C=C/c1cc(=O)[nH]c(=O)n1COCCO` is 4.82; for `CC(C)(C)C#Cc1cn([C@H]2C[C@H](O)[C@@H](CO)O2)c(=O)[nH]c1=O` it is below 3.70; for `C[C@H](O)C1CC(CCn2nnc3c(N)ncnc32)C1(C)C` (stereo partly specified) it is below 3.70.
Turning to `O=c1[nH]c(=O)n(COCCO)cc1I`, the pIC50 (Mus musculus, L1210/0, 48 h) is below 3.70.
Same read-out and setting: for `O=c1[nH]c(=O)n(COCCO)cc1Br` the value was below 3.70; for `O=c1ccn(CC2CCC(CO)C2)c(=O)[nH]1` (stereo unspecified), below 3.70.
In the case of `Cc1cn(C[C@@H]2C[C@H](CO)c3ccccc32)c(=O)[nH]c1=O`, the pIC50 (Mus musculus, L1210/0, 48 h) is below 3.70.
The molecule `O=c1[nH]c(=O)n(C[C@H]2CCC[C@H]2CO)cc1I` had a negative-log IC50 (pIC50) (Mus musculus, L1210/0, 48 h) below 3.70.
On the same count and under the same terms, the figure for `CNc1nc2c(=O)[nH]c(N)nc2n1COCCO` is below 3.70; for `Nc1ncnc2c1ncn2C1OC(/C=N/O)CC1O` (stereo unspecified) it is below 3.70; for `C[C@H](O)C1CC(CCn2cnc3c(=O)[nH]cnc32)C1(C)C` (stereo partly specified) it is below 3.70.
The same measure, in the same setting: for `O=C1OC(C(O)Cn2cc(C(F)(F)F)c(=O)[nH]c2=O)C(OCc2ccccc2)=C1OCc1ccccc1` (stereo unspecified) the value was 4.30; for `Cc1ccc(C(=O)/C=C/c2cc(=O)[nH]c(=O)n2COCCO)cc1`, 4.55.
The same measure, in the same setting: for `CC1(C)[C@@H](Cn2nnc3c(Cl)nc(N)nc32)CC[C@@]1(C)CO` the value was 4.35.
For `COC1=C(OC)C(=CCn2cnc3c(N)ncnc32)OC1=O`, the pIC50 (Mus musculus, L1210/0, 48 h) was below 3.70.
The same measure, in the same setting: the figure for `Nc1nc2c(nc(O)n2COCCO)c(=O)[nH]1` is below 3.70; for `CN(C)c1ncnc2c1ncn2COCCO` it is below 3.70; for `Cc1ccc(C(=O)/C=C/c2cc(O)nc(O)n2)cc1` it is 3.74.
As to `CC1(C)[C@@H](CO)CC[C@@]1(C)Cn1ccc(=O)[nH]c1=O`, the pIC50 (Mus musculus, L1210/0, 48 h) was below 3.70.
Still for that read-out and setting: the figure for `CC(C)C[C@H](NC(=O)[C@@H]1CCCN1)C(=O)NCC(N)=O` (H-Pro-Leu-Gly-NH2) is below 3.70.
Take `OC[C@H]1C[C@@H](Cn2cnc3c(-c4ccccc4)ncnc32)c2ccccc21`: the pIC50 (Mus musculus, L1210/0, 48 h) is 4.55.
The same measure, in the same setting: the figure for `Nc1ncnc2c1ncn2C[C@@H]1CCC[C@H]1CO` is below 3.70; for `O=C(CI)NCc1cn([C@H]2C[C@H](O)[C@@H](CO)O2)c(=O)[nH]c1=O` it is 3.97; for `CC1(C)[C@@H](CO)CC[C@@]1(C)Cn1cnc2c(=O)[nH]cnc21` it is below 3.70.
In turn, `C#C[C@H]1O[C@@H](n2cnc3c(N)ncnc32)[C@@H](O)[C@H]1O` gave a pIC50 (Mus musculus, L1210/0, 48 h) of 5.92.
On the same count and under the same terms, for `OC[C@@H]1CCC[C@@H]1Cn1cnc2c(Cl)ncnc21` the value was 4.28.
The same measure, in the same setting: for `COC1=C(OC)C(O)(CCn2cnc3c(N)ncnc32)OC1=O` (stereo unspecified) the value was below 3.70.
Molecule `Nc1ncnc2c1ncn2[C@@H]1O[C@H](/C=N/O)[C@@H](O)[C@H]1O` (stereo in doubt; 82) had a pIC50 (l1210/0) of 4.43.
As to `Nc1nc2c(nc(I)n2COCCO)c(=O)[nH]1`, the pIC50 (Mus musculus, L1210/0, 48 h) was 3.95.
The same measure, in the same setting: for `CC1(C)C(CO)CC1Cn1nnc2c(=O)[nH]c(N)nc21` (stereo unspecified) the value was below 3.70; for `COc1ncnc2c1ncn2C[C@@H]1C[C@H](CO)c2ccccc21`, below 3.70.
Where the note is “Mus musculus, L1210/0, 48 h”, `CC1(C)[C@@H](CCCO)C[C@H]1n1nnc2c(=O)[nH]c(N)nc21` gave a pIC50 below 3.70.

The record behind these values is ChEMBL document CHEMBL1142978, “Probing the anticancer activity of nucleoside analogues: a QSAR model approach using an internally consistent training set” (J Med Chem, 2007).
